In ChEMBL document CHEMBL1149032, “Two new cytotoxic peroxide-containing acids from a New Guinea sponge, Callyspongia sp” (1994):
Converted amounts (≈) assume the structure as drawn.

System: P388
Assay: Cytotoxicity against mouse P388 cells
Type: functional
Conditions: read-out: ED50 (the source's name)

| SMILES | EC50 [µg/mL] |
| --- | --- |
| C/C=C1/C[C@](CC)(CCCC)OO[C@H]1CC(=O)O | 5.5 (≈ 21.5 µM) |
| CCCCC1(CC)C[C@@H](CC)[C@H](CC(=O)O)OO1 (some centres not stated) | 2.6 (≈ 10.1 µM) |
